These results are taken from patent US20160075653A1, “NEMATICIDAL N-(PHENYLCYCLOALKYL)CARBOXAMIDES AND N-(PHENYLCYCLOALKYL)THIOCARBOXAMIDES” (BAYER CROPSCIENCE AKTIENGESELLSCHAFT, priority 2013, published 2016).

SMILES strings stand for the structures. Like-named read-outs stand apart in the source and are kept apart here.

The data set can be described thus: Measurement of log P values by HPLC on reversed phase columns (methods [a] pH 2.3, [b] pH 2.7, [c] pH 7.8). The data set is classed as physicochemical. The settings on record: for chromatographic logP: reversed phase HPLC columns, read-out: logP. A digest of the protocol: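 Determined per EEC Directive 79/831 Annex V.A8 by reversed-phase HPLC, 10-95% acetonitrile gradient: [a] pH 2.3, 0.1% phosphoric acid; [b] LC-MS, pH 2.7, 0.1% formic acid; [c] LC-MS, pH 7.8, 0.001 molar ammonium hydrogen carbonate. Calibrated with C3-C16 alkan-2-ones by retention-time interpolation.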

[1] abbreviates: HPLC reversed phase, method [b] (pH 2.7).
Setting [2] is: HPLC reversed phase, method [c] pH 7.8.
The mark [3] stands for this setting: pH 2.7, HPLC reversed phase, method [b] (pH 2.7).
[4] abbreviates: HPLC on reversed phase column, method [b], pH 2.7.
Where [5] appears, read: HPLC on reversed phase column, method [c], pH 7.8.
Where [6] appears, read: HPLC on reversed phase columns, method [b], pH 2.7.

In the case of `O=C(NC1CCCCC1c1ccc(Cl)cc1Cl)c1ccccc1I` (centres unmarked) [Example 415], the logP under setting [1] is 4.57^[b].

`Cc1nn(C)cc1C(=O)NC1CCCCC1c1ccc(Cl)cc1Cl` (centres unmarked) [Example 416]: the logP under setting [1] is 3.19^[b].

As to `O=C(NC1CCCCCC1c1ccccc1C(F)(F)F)c1cccnc1C(F)(F)F` (centres unmarked) [Example 418], the logP under setting [1] was 3.94^[b].

Take `O=C(NC1CCCCCC1c1ccccc1C(F)(F)F)c1ccccc1I` (centres unmarked) [Example 419]: the logP under setting [1] is 4.59^[b].

`O=C(NC1CCCCCC1c1ccccc1C(F)(F)F)c1ccccc1C(F)(F)F` (centres unmarked) [Example 420]: the logP under setting [1] is 4.55^[b].

`Cn1cc(C(=O)NC2CCCCCC2c2ccccc2C(F)(F)F)c(C(F)F)n1` (centres unmarked) [Example 421]: under setting [1], the logP is 3.69^[b].

With `O=C(NC1CC1c1ccc(Cl)cc1)c1ccccc1F` (centres unmarked) [Example 422], the logP was 3.12^[b] under setting [1] and 3.07^[c]; under setting [2].

`O=C(NC1CC1c1ccc(Cl)cc1)c1ccccc1Br` (centres unmarked) [Example 423]: the logP is, setting by setting: under setting [1], 3.13^[b]; under setting [2], 3.07^[c];.

Consider `O=C(NC1CCC1c1ccccc1C(F)(F)F)c1ccccc1I` (centres unmarked) [Example 428], for which the logP under setting [1] is 3.42^[b].

In the case of `O=C(NC1CCC1c1ccccc1C(F)(F)F)c1ccc(Cl)cc1` (centres unmarked) [Example 429], the logP under setting [1] is 3.56^[b].

As for `O=C(NC1CCC1c1ccccc1C(F)(F)F)c1ccccc1Cl` (centres unmarked) [Example 433], under setting [1], the logP is 3.01^[b].

Consider `O=C(NC1CCC1c1ccccc1C(F)(F)F)c1cccc(Cl)c1` (centres unmarked) [Example 436], for which, under setting [1], the logP is 3.59^[b].

With `O=C(NC1CCC1c1ccccc1C(F)(F)F)c1ncc(C(F)(F)F)cc1Cl` (centres unmarked) [Example 437], under setting [1], the logP was 3.88^[b].

`O=C(NC1CCC1c1c(F)cccc1F)c1c(F)cccc1F` (centres unmarked) [Example 439]: the logP under setting [1] was 2.83^[b].

Regarding `O=C(NC1CCC1c1c(F)cccc1F)c1ccc(Cl)cc1Cl` (centres unmarked) [Example 441], the logP under setting [1] is 3.49^[b].

Regarding `O=C(NC1CCC1c1c(F)cccc1F)c1cccc(Cl)c1` (centres unmarked) [Example 442], the logP under setting [1] was 3.26^[b].

With `O=C(NC1CCC1c1c(F)cccc1F)c1ccc(Cl)cc1` (centres unmarked) [Example 444], the logP under setting [1] is 3.20^[b].

In the case of `O=C(NC1CCC1c1ccccc1Cl)c1cccc(Cl)c1` (centres unmarked) [Example 445], under setting [1], the logP is 3.75^[b].

Turning to `O=C(NC1CCC1c1ccccc1Cl)c1ccc(Cl)cc1` (centres unmarked) [Example 446], the logP under setting [1] is 3.70^[b].

Take `O=C(NC1CCC1c1ccccc1Cl)c1ccccc1` (centres unmarked) [Example 447]: the logP under setting [1] was 3.14^[b].

`O=C(NC1CCC1c1ccccc1Cl)c1cccc(Cl)c1` (centres unmarked) [Example 448]: the logP under setting [1] is 3.36^[b].

For the molecule `O=C(NC1CCC1c1ccccc1Cl)c1ccccc1` (centres unmarked) [Example 449], the logP under setting [1] was 2.81^[b].

Turning to `O=C(NC1CCC1c1ccc(Cl)cc1Cl)c1ccccc1` (centres unmarked) [Example 450], the logP under setting [1] is 3.75^[b].

Regarding `O=C(NC1CCC1c1ccc(Cl)cc1Cl)c1ccc(Cl)cc1` (centres unmarked) [Example 452], the logP under setting [1] was 4.33^[b].

For the molecule `O=C(NC1CCC1c1ccc(Cl)cc1Cl)c1ccc(Cl)cc1` (centres unmarked) [Example 453], the logP under setting [1] is 3.85^[b].

`O=C(N[C@@H]1CC[C@H]1c1ccc(Cl)cc1Cl)c1cccc(Cl)c1` [Example 454]: under setting [3], the chromatographic logP stood at 4.4.

`O=C(N[C@@H]1CC[C@@H]1c1ccccc1Cl)c1ccc(Cl)cc1` [Example 455]: under setting [3], the chromatographic logP worked out at 3.35.

Regarding `O=C(NC1CCC1c1ccc(Cl)cc1Cl)c1cccc(Cl)c1` (centres unmarked) [Example 457], the logP under setting [1] was 3.87^[b].

For `O=C(NC1CCC1c1ccccc1C(F)(F)F)c1ncccc1Cl` (centres unmarked) [Example 458], the logP under setting [1] is 3.22^[b].

With `O=C(NC1CC1c1ccc(Cl)cc1)c1ccccc1C(F)F` (centres unmarked) [Example 459], the logP under setting [1] was 2.90^[b] and the logP under setting [2] is 2.88^[c];.

For `O=C(NC1CC1c1ccc(Cl)cc1)c1c(F)cccc1Cl` (centres unmarked) [Example 463], the logP is 2.83^[b] under setting [1] and 2.75^[c]; under setting [2].

Regarding `O=C(NC1CC1c1ccc(Cl)cc1)c1c(F)cccc1I` (centres unmarked) [Example 464], the logP runs as follows: under setting [1], 3.02^[b]; under setting [2], 2.99^[c];.

`O=C(NC1CC1c1ccc(Cl)cc1)c1c(F)cc(F)cc1F` (centres unmarked) [Example 466]: the logP is 2.80^[b] under setting [1] and 2.78^[c]; under setting [2].

On to `O=C(NC1CC1c1ccc(Cl)cc1)c1ccccc1[N+](=O)[O-]` (centres unmarked) [Example 467], for which the logP reads like this: under setting [1], 2.59^[b]; under setting [2], 2.45^[c];.

As to `Cn1cc(C(=O)NC2CCC2c2ccc(Cl)cc2Cl)c(C(F)F)n1` (centres unmarked) [Example 468], under setting [1], the logP is 3.26^[b].

For the molecule `Cn1cc(C(=O)NC2CCC2c2ccc(Cl)cc2Cl)c(C(F)F)n1` (centres unmarked) [Example 469], the logP under setting [1] was 2.95^[b].

As to `O=C(NC1CCC1c1ccc(Cl)cc1Cl)c1cccnc1C(F)(F)F` (centres unmarked) [Example 470], under setting [1], the logP was 3.45^[b].

Take `O=C(NC1CCC1c1ccc(Cl)cc1Cl)c1ccccc1Br` (centres unmarked) [Example 471]: under setting [1], the logP is 3.92^[b].

`O=C(NC1CCC1c1ccc(Cl)cc1Cl)c1ccccc1C(F)(F)F` (centres unmarked) [Example 474]: the logP under setting [1] was 4.02^[b].

As for `O=C(NC1CCC1c1ccc(F)cc1C(F)(F)F)c1cccc(Cl)c1` (centres unmarked) [Example 477], the logP under setting [1] is 4.02^[b].

For the molecule `O=C(NC1CCC1c1ccc(F)cc1C(F)(F)F)c1ncc(C(F)(F)F)cc1Cl` (centres unmarked) [Example 480], the logP under setting [1] was 4.23^[b].

With `O=C(NC1CCC1c1ccc(F)cc1C(F)(F)F)c1ncc(C(F)(F)F)cc1Cl` (centres unmarked) [Example 483], the logP under setting [1] is 3.97^[b].

As to `Cn1cc(C(=O)NC2CCC2c2ccc(F)cc2C(F)(F)F)c(C(F)F)n1` (centres unmarked) [Example 484], under setting [1], the logP is 3.02^[b].

Turning to `Cn1cc(C(=O)NC2CCC2c2c(F)cccc2F)c(C(F)F)n1` (centres unmarked) [Example 486], under setting [1], the logP was 2.42^[b].

For the molecule `O=C(N[C@@H]1CC[C@H]1c1ccccc1C(F)(F)F)c1ccccc1I` [Example 497], under setting [3], the chromatographic logP was determined as 3.61.

With `O=C(N[C@@H]1CC[C@H]1c1ccccc1C(F)(F)F)c1ccccc1Cl` [Example 498], under setting [3], the chromatographic logP stood at 3.42.

As for `O=C(NC1CC1c1ccccc1Cl)c1cccnc1C(F)(F)F` (centres unmarked) [Example 499], the logP under setting [1] was 2.62^[b].

For `O=C(NC1CC1c1ccccc1C(F)(F)F)c1cccnc1C(F)(F)F` (centres unmarked) [Example 500], under setting [1], the logP was 2.79^[b].

`O=C(NC1CCC1c1c(F)cccc1F)c1ccccc1` (centres unmarked) [Example 514]: the logP under setting [1] is 2.75^[b].

As to `O=C(NC1CCC1c1ccccc1C(F)(F)F)c1nccnc1C(F)(F)F` (centres unmarked) [Example 604], the logP is 3.18^[b] under setting [4] and 3.10^[c]; under setting [5].

For the molecule `O=C(NC1CCC1c1ccccc1C(F)(F)F)c1ncccc1Br` (centres unmarked) [Example 605], the logP by setting is: under setting [4], 3.17^[b]; under setting [5], 3.10^[c];.

In the case of `CC1=C(C(=O)NC2CCC2c2ccccc2C(F)(F)F)S(=O)(=O)CCO1` (centres unmarked) [Example 606], the logP runs as follows: under setting [4], 2.49^[b]; under setting [5], 2.45^[c];.

As to `O=C(N[C@@H]1CC[C@H]1c1ccccc1C(F)(F)F)c1cccnc1Cl` [Example 620], the chromatographic logP (pH 2.7, HPLC on reversed phase column, method [b], pH 2.7) came to 2.79.

Regarding `O=C(NC1CCC1c1ccccc1C(F)(F)F)c1nccnc1C(F)(F)F` (centres unmarked) [Example 687], the logP by setting is: under setting [4], 3.31^[b]; under setting [5], 3.25^[c];.

Turning to `O=C(NC1CCC1c1ccccc1C(F)(F)F)c1ncccc1Br` (centres unmarked) [Example 691], the logP is 3.34^[b] under setting [4] and 3.27^[c]; under setting [5].

On to `O=C(NC1CCC1c1ccc(Cl)cc1C(F)(F)F)c1sccc1I` (centres unmarked) [Example 710], for which the logP under setting [4] is 4.55^[b].

For the molecule `O=C(NC1CCC1c1ccc(Cl)cc1C(F)(F)F)c1sccc1I` (centres unmarked) [Example 711], the logP under setting [4] is 4.28^[b].

For the molecule `Cn1cc(C(=O)NC2CCC2c2ccc(Cl)cc2C(F)(F)F)c(C(F)F)n1` (centres unmarked) [Example 718], the logP under setting [6] was 3.41^[b].

Consider `Cn1cc(C(=O)NC2CCC2c2ccc(Cl)cc2C(F)(F)F)c(C(F)F)n1` (centres unmarked) [Example 719], for which the logP under setting [6] was 3.17^[b].

As to `O=C(NC1CCC1c1ccc(Cl)cc1C(F)(F)F)c1cccnc1C(F)(F)F` (centres unmarked) [Example 720], under setting [6], the logP was 3.60^[b].

For `O=C(NC1CCC1c1ccc(Cl)cc1C(F)(F)F)c1cccnc1C(F)(F)F` (centres unmarked) [Example 721], the logP under setting [6] is 3.36^[b].

On to `O=C(NC1CCC1c1ccc(Cl)cc1C(F)(F)F)c1ccccc1Br` (centres unmarked) [Example 722], for which the logP under setting [6] is 4.08^[b].

On to `O=C(NC1CCC1c1ccc(Cl)cc1C(F)(F)F)c1ccccc1Br` (centres unmarked) [Example 723], for which the logP under setting [6] is 3.80^[b].

For the molecule `O=C(NC1CCC1c1c(Cl)cccc1Cl)c1cccnc1` (centres unmarked) [Example 724], the logP under setting [6] is 2.17^[b].

For `O=C(NC1CCC1c1c(Cl)cccc1Cl)c1cccnc1Cl` (centres unmarked) [Example 725], the logP under setting [6] was 2.79^[b].

In the case of `Cn1cc(C(=O)NC2CCC2c2c(Cl)cccc2Cl)c(C(F)F)n1` (centres unmarked) [Example 726], the logP under setting [6] is 2.90^[b].

Regarding `O=C(NC1CCC1c1c(Cl)cccc1Cl)c1c(F)cccc1F` (centres unmarked) [Example 727], the logP under setting [6] is 3.33^[b].

`O=C(NC1CCC1c1c(Cl)cccc1Cl)c1ccccc1` (centres unmarked) [Example 728]: the logP under setting [6] was 3.30^[b].

As for `O=C(NC1CCC1c1c(Cl)cccc1Cl)c1cccc(Cl)c1` (centres unmarked) [Example 729], the logP under setting [6] was 3.87^[b].

Regarding `Cc1nc(C(F)(F)F)c(C(=O)NC2CCC2c2ccc(Cl)cc2C(F)(F)F)s1` (centres unmarked) [Example 730], the logP under setting [6] is 4.03^[b].

For the molecule `Cc1nc(C(F)(F)F)c(C(=O)NC2CCC2c2ccc(Cl)cc2C(F)(F)F)s1` (centres unmarked) [Example 731], the logP under setting [6] is 3.75^[b].
